Assay results as given in patent US20210330611A1, “THERAPY FOR NEUROLOGICAL DISEASES/DISORDERS” (priority 2020, published 2021).
Like-named read-outs stand apart in the source and are kept apart here. *1 amine or outer side, *2 acyl side, *3 side chain or, on linkers, in order; H or OH if unused. Where a SMILES comes first, the peptide text is derived from it. Bridges are numbered along the chain shown (N, C = ends). Roman numbers before positions name the chains, in order. [ ]: non-standard residue; d: D form. Actinocin(9to1) = Cc1c2oc3c(C)ccc(C(=O)[*:1])c3nc-2c(C(=O)[*:2])c(N)c1=O; NMeV = CN[C@H](C(=O)O)C(C)C; Sar = CNCC(=O)O

Assays:
Format in all cases: cell-based, rat
[1] = tested on: fibrin-induced microglia activation; test: Image-based assay of fibrin-induced microglia activation (HTS and dose response); details: for inhibition at 10 µM: read-out: Fibrin % inhibition; for IC50: read-out: fib_IC50
[2] = tested on: LPS-induced microglia activation; test: Image-based assay of LPS-induced microglia activation (HTS and dose response)
[3] = tested on: fibrin- and LPS-induced microglia activation; test: cells
[4] = Rattus norvegicus, Microglia, primary microglia HTS, fibrin stimulation, increased cell size (>800 μm^2) as marker of activation
[5] = Rattus norvegicus, Microglia, 48 h, primary microglia HTS, LPS stimulation; increased cell size (>800 μm^2) as marker of activation; read-out: LPS % inhibition
[6] = quadrant by fibrin and LPS inhibition in HTS of 1907 compounds
[7] = Rattus norvegicus, Microglia, 48 h, read-out: LPS % inhibition
[8] = classification by fibrin and LPS inhibition in HTS
[9] = Rattus norvegicus, Microglia, primary microglia HTS, fibrin stimulation, activation = cell size >800 μm2
[10] = Rattus norvegicus, Microglia, 48 h, primary microglia HTS, LPS stimulation, activation = cell size >800 μm2; read-out: LPS % inhibition
[11] = primary microglia HTS, fibrin stimulation, compounds at 10 μM
[12] = primary microglia HTS, LPS stimulation, compounds at 10 μM
[13] = classification by fibrin and LPS inhibition, HTS at 10 μM
[14] = Rattus norvegicus, Microglia, Table 7
[15] = Rattus norvegicus, Microglia, Table 7; read-out: LPS_IC50
[16] = Table 7, fib = fibrin, LPS, tox = toxicity
[17] = quadrant by fibrin and LPS inhibition, HTS at 10 μM

Cc1c2oc3c(C)ccc(C(=O)N[C@@H]4C(=O)N[C@H](C(C)C)C(=O)N5CCC[C@H]5C(=O)N(C)CC(=O)N(C)[C@@H](C(C)C)C(=O)O[C@@H]4C)c3nc-2c(C(=O)N[C@@H]2C(=O)N[C@H](C(C)C)C(=O)N3CCC[C@H]3C(=O)N(C)CC(=O)N(C)[C@@H](C(C)C)C(=O)O[C@@H]2C)c(N)c1=O [Dactinomycin] (I: T[dV]P[Sar][NMeV] / II: T[dV]P[Sar][NMeV]; ester I:1-I:C, II:1-II:C; linker I:N-II:N via Actinocin(9to1))
inhibition at 10 µM [1, 4]: 106% | inhibition at 10 µM [2, 5]: 106% | Quadrant (FIG. 5b) [3, 6]: Q2

CN(C)c1ccc(O)c2c1C[C@H]1C[C@H]3[C@H](N(C)C)C(O)=C(C(N)=O)C(=O)[C@@]3(O)C(O)=C1C2=O [Minocycline]
inhibition at 10 µM [1, 4]: -6% | inhibition at 10 µM [2, 5]: 16% | Quadrant (FIG. 5b) [3, 6]: Q4

C#C[C@]1(O)CC[C@H]2[C@@H]3CCC4=C(CCC(=O)C4)[C@H]3CC[C@@]21C [Norethynodrel]
inhibition at 10 µM ([1]; Rattus norvegicus, Microglia): 1% | inhibition at 10 µM [2, 7]: 10% | Quadrant (FIG. 5b) [3]: Q4

Spiramycin
Fibrin % inhibition ([1]; primary microglia HTS, fibrin stimulation, cell size >800 μm2 as marker of activation): 17% | LPS % inhibition [2]: 14% | Quadrant (FIG. 5b) [3, 8]: Q4

C#C[C@]1(O)CC[C@H]2[C@@H]3CCC4=CC(=O)CC[C@@H]4[C@H]3CC[C@@]21CC [Levonorgestrel]
inhibition at 10 µM [1, 9]: 16% | inhibition at 10 µM [2, 10]: -13% | Quadrant (FIG. 5b) [3, 6]: Q4

CN[C@@H](C)[C@H](O)c1ccccc1.Cl [Ephedrine (1r,2s) Hydrochloride]
Fibrin % inhibition [1, 11]: −26% | LPS % inhibition [2, 12]: 10% | Quadrant (FIG. 5b) [3, 13]: Q4

O=C1O[C@H]([C@@H](O)CO)C(O)=C1O [Vitamin C]
Fibrin % inhibition ([1]; primary microglia HTS, 10 μM, fibrin-stimulated, cell size >800 μm^2 as marker of activation): −28% | LPS % inhibition ([2]; primary microglia HTS, 10 μM, LPS-stimulated, cell size >800 μm^2 as marker of activation): 18% | Quadrant (FIG. 5b) ([3]; HTS of 1907 compounds, quadrant by fibrin and LPS inhibition): Q4

CN[C@@H](C)[C@@H](O)c1ccccc1 [Pseudoephedrine]
inhibition at 10 µM ([1]; Rattus norvegicus, Microglia, primary microglia HTS, fibrin stimulation, cell size >800 μm2 as marker of activation): -13% | inhibition at 10 µM ([2]; Rattus norvegicus, Microglia, 48 h; read-out: LPS % inhibition): 5% | Quadrant (FIG. 5b) [3, 8]: Q4

Nc1nc2ccc(OC(F)(F)F)cc2s1 [Riluzole]
inhibition at 10 µM ([1]; Rattus norvegicus, Microglia): 0% | inhibition at 10 µM [2, 7]: 7% | Quadrant (FIG. 5b) [3]: Q4

O=C(O)Cc1ccccc1Nc1c(Cl)cccc1Cl [Diclofenac]
inhibition at 10 µM ([1]; Rattus norvegicus, Microglia, primary microglia HTS, fibrin stimulation, compounds at 10 μM): -27% | inhibition at 10 µM ([2]; Rattus norvegicus, Microglia, primary microglia HTS, LPS stimulation, compounds at 10 μM; read-out: LPS % inhibition): 12% | Quadrant (FIG. 5b) [3, 13]: Q4

Cn1nnnc1SCC1=C(C(=O)O)N2C(=O)[C@@H](NC(=O)[C@H](O)c3ccccc3)[C@H]2SC1 [cefamandole sodium]
IC50 [1, 14]: 52 nM | IC50 [2, 15]: 2 nM | Activity [3, 16]: fib/LPS

C[C@@H]1CCC[C@H](C)N1NC(=O)c1ccc(Cl)c(S(N)(=O)=O)c1 [clopamide]
IC50 [1, 14]: 3 nM | IC50 [2, 15]: 2 nM | Activity [3, 16]: fib/LPS

O.OC[C@H]1O[C@@H](O[C@H]2[C@H](O)[C@@H](O)C(O)O[C@@H]2CO)[C@H](O)[C@@H](O)[C@H]1O (stereo partly drawn) [Lactose Monohydrate]
inhibition at 10 µM [1, 9]: -22% | inhibition at 10 µM [2, 10]: 9% | Quadrant (FIG. 5b) [3, 6]: Q4

neomycin sulfate
fib specificity [1]: 2.2 | fib_HS [1]: −0.75 | IC50 [1]: 2300 nM | LPS specificity [2]: 0.5 | Activity [3]: fib/LPS

C#CC(C)(O)CC (stereo not drawn) [Meparfylon]
Fibrin % inhibition ([1]; primary microglia HTS, fibrin stimulation, increased cell size (>800 μm^2) as marker of activation): −49% | LPS % inhibition ([2]; primary microglia HTS, LPS stimulation; increased cell size (>800 μm^2) as marker of activation): 3% | Quadrant (FIG. 5b) [3, 6]: Q4

C[C@@H]([C@H](O)c1ccccc1)N(C)C
Fibrin % inhibition [1, 11]: −52% | LPS % inhibition [2, 12]: 7% | Quadrant (FIG. 5b) [3, 17]: Q4

COc1cc([C@@H]2c3cc4c(cc3[C@H](O)[C@H]3COC(=O)[C@H]23)OCO4)cc(OC)c1OC [Podofilox, reference compound]
IC50 [1, 14]: 14 nM | IC50 [2, 15]: 2 nM | Quadrant (FIG. 5b) ([3]; Table 2, screen at 10 μM): Q2 | Activity [3, 16]: fib/LPS

Cc1cc(C(C)(C)C)c(O)c(C(C)(C)C)c1
Fibrin % inhibition [1, 11]: −4% | LPS % inhibition [2, 12]: 5% | Quadrant (FIG. 5b) [3, 17]: Q4

NC(N)=Nc1nc(CSCCC(N)=NS(N)(=O)=O)cs1 [Famotidine]
inhibition at 10 µM ([1]; Rattus norvegicus, Microglia): -82% | inhibition at 10 µM ([2]; Rattus norvegicus, Microglia, read-out: LPS % inhibition): 9% | Quadrant (FIG. 5b) [3]: Q4
